# In patent US8247211B2, “Glycopeptide antibiotics” (American Cyanamid Company, priority 2001, dated 2012):
# Assays:
# Staphylococcus sp. = test: In vitro antibacterial evaluation: minimum inhibitory concentration (MIC), broth dilution method; type: cell-based; details: for MIC Staphylococcus aureus (ATCC 29213): strain ATCC 29213; for MIC Staphylococcus aureus (GC 1131): strain GC 1131; for MIC Staphylococcus aureus (GC 3051): strain GC 3051; for MIC Staphylococcus aureus (GC 3053): strain GC 3053; for MIC Staphylococcus aureus (GC 4541): strain GC 4541; for MIC Staphylococcus aureus (GC 4542): strain GC 4542; for MIC Staphylococcus aureus-SMITH (GC 4543): strain GC 4543; for MIC Staphylococcus aureus (GC 4544): strain GC 4544; for MIC Staphylococcus aureus (GC 4545): strain GC 4545; for MIC Staphylococcus haemolyticus (GC 4546): strain GC 4546; for MIC Coagulase Negative Staphylococcus (GC 4547): strain GC 4547; for MIC Coagulase Negative Staphylococcus (GC 4548): strain GC 4548; for MIC Coagulase Negative Staphylococcus (GC 4549): strain GC 4549; for MIC Coagulase Negative Staphylococcus (GC 4551): strain GC 4551; for MIC Coagulase Negative Staphylococcus (GC 6257): strain GC 6257
# How it was run: (§1)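 Broth dilution per NCCLS M7-A2 in Muller-Hinton II […], inoculum 5×10^5 CFU/mL, antibiotic tested over 64-0.06 μg/mL. MIC is taken as the lowest concentration that inhibits growth. Panel includes recent clinical isolates resistant to methicillin, penicillin and/or vancomycin.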
# Enterococcus sp. = test: as above; type: cell-based; details: broth dilution, 5×10^5 CFU/mL, 18 hours at 35° C.
# How it was run: as §1
# Escherichia coli = test: as above; type: cell-based; details: 5×10^5 CFU/mL, 18 hours at 35° C.
# How it was run: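 NCCLS M7-A2 broth dilution; Muller-Hinton II […]; 5×10^5 CFU/mL; 64-0.06 μg/mL. MIC = lowest concentration with no growth.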
# Streptococcus sp. = test: as above; type: cell-based; details: broth dilution, 5×10^5 CFU/mL, 18 hours at 35° C.
# How it was run: as §1
# [1] = system: Enterococcus faecalis (GC 6189), vancomycin resistant strain; test: Acute lethal infection in mice (ED50); type: in vivo; details: female CD-1 mice, intraperitoneal challenge, intravenous dose 30 min. after infection, 7 day survival ratios
# How it was run: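 Lethal systemic infection model: female CD-1 mice, 20 ± 1-2 g, intraperitoneal challenge. Single intravenous treatment 30 min after infection; 7-day survival, pooled from 3 tests, gives ED50.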
# [2] = broth dilution, 18 hours at 35° C.
compound,measurement,setting,value
"CCC(CC)C1OCC2OC(OC3C(CO)OC(Oc4ccc(CC5NC(=O)C(C(C)c6ccccc6)NC(=O)CNC(=O)C(CO)NC(=O)C(C(O)C6CNC(=N)N6C6OC(CO)C(O)C(O)C6O)NC(=O)C(C(O)C6CNC(=N)N6)NC5=O)cc4)C(O)C3O)C(O)C(O)C2O1 (stereo not drawn) [Example 116, Cyclo[glycyl-β-methylphenylalanyl-O-[4-O-[4,6-O-(2-ethylbutylidene)hexopyranosyl]-hexopyranosyl]tyrosyl-3-(2-iminoimidazolidin-4-yl)seryl-3-(3-hexopyranosyl-2-iminoimidazolidin-4-yl)serylseryl]]",MIC Staphylococcus aureus (ATCC 29213),Staphylococcus sp.,1 µg/mL
same,MIC Staphylococcus aureus (ATCC 29213),Staphylococcus sp.; [2],1 µg/mL
same,MIC Staphylococcus aureus (GC 1131),Staphylococcus sp.,1 µg/mL
same,MIC Staphylococcus aureus (GC 1131),Staphylococcus sp.; [2],1 µg/mL
same,MIC Staphylococcus aureus (GC 3051),Staphylococcus sp.,1 µg/mL
same,MIC Staphylococcus aureus (GC 3051),Staphylococcus sp.; [2],1 µg/mL
same,MIC Staphylococcus aureus (GC 3053),Staphylococcus sp.,1 µg/mL
same,MIC Staphylococcus aureus (GC 3053),Staphylococcus sp.; [2],1 µg/mL
same,MIC Staphylococcus aureus (GC 4541),Staphylococcus sp.,1 µg/mL
same,MIC Staphylococcus aureus (GC 4541),Staphylococcus sp.; [2],1 µg/mL
same,MIC Staphylococcus aureus (GC 4542),Staphylococcus sp.,0.5 µg/mL
same,MIC Staphylococcus aureus (GC 4542),Staphylococcus sp.; [2],0.5 µg/mL
same,MIC Staphylococcus aureus-SMITH (GC 4543),Staphylococcus sp.; 18 hours at 35° C.,1 µg/mL
same,MIC Staphylococcus aureus-SMITH (GC 4543),Staphylococcus sp.; [2],1 µg/mL
same,MIC Staphylococcus aureus (GC 4544),Staphylococcus sp.,1 µg/mL
same,MIC Staphylococcus aureus (GC 4544),Staphylococcus sp.; [2],1 µg/mL
same,MIC Staphylococcus aureus (GC 4545),Staphylococcus sp.,1 µg/mL
same,MIC Staphylococcus aureus (GC 4545),Staphylococcus sp.; [2],1 µg/mL
same,MIC Staphylococcus haemolyticus (GC 4546),Staphylococcus sp.,0.5 µg/mL
same,MIC Staphylococcus haemolyticus (GC 4546),Staphylococcus sp.; [2],0.5 µg/mL
same,MIC Coagulase Negative Staphylococcus (GC 4547),Staphylococcus sp.,1 µg/mL
same,MIC Coagulase Negative Staphylococcus (GC 4547),Staphylococcus sp.; [2],1 µg/mL
same,MIC Coagulase Negative Staphylococcus (GC 4548),Staphylococcus sp.,1 µg/mL
same,MIC Coagulase Negative Staphylococcus (GC 4548),Staphylococcus sp.; [2],1 µg/mL
same,MIC Coagulase Negative Staphylococcus (GC 4549),Staphylococcus sp.,1 µg/mL
same,MIC Coagulase Negative Staphylococcus (GC 4549),Staphylococcus sp.; [2],1 µg/mL
same,MIC Coagulase Negative Staphylococcus (GC 4551),Staphylococcus sp.,1 µg/mL
same,MIC Coagulase Negative Staphylococcus (GC 4551),Staphylococcus sp.; [2],1 µg/mL
same,MIC Coagulase Negative Staphylococcus (GC 6257),Staphylococcus sp.,0.5 µg/mL
same,MIC Coagulase Negative Staphylococcus (GC 6257),Staphylococcus sp.; [2],0.5 µg/mL
same,MIC Enterococccus avium (GC 4558),Enterococcus sp.,2 µg/mL
same,MIC Enterococccus faecalis (ATCC 29212),Enterococcus sp.,2 µg/mL
same,MIC Enterococccus faecalis (GC 2691),Enterococcus sp.,2 µg/mL
same,MIC Enterococccus faecalis (GC 3059),Enterococcus sp.,2 µg/mL
same,MIC Enterococccus faecalis (GC 4552),Enterococcus sp.,2 µg/mL
same,MIC Enterococccus faecalis (GC 4553),Enterococcus sp.,2 µg/mL
same,MIC Enterococccus faecalis (GC 4554),Enterococcus sp.,2 µg/mL
same,MIC Enterococccus faecalis (GC 6189),Enterococcus sp.,2 µg/mL
same,MIC Enterococccus faecium (GC 2243),Enterococcus sp.,2 µg/mL
same,MIC Enterococccus faecium (GC 4556),Enterococcus sp.,2 µg/mL
same,MIC Enterococccus faecium (GC 4557),Enterococcus sp.,2 µg/mL
same,MIC Enterococcus faecalis (GC 2242),Enterococcus sp.,2 µg/mL
same,MIC Escherichia coli (ATCC 25922),Escherichia coli,32 µg/mL
same,MIC Escherichia coli (GC 4559),Escherichia coli,64 µg/mL
same,MIC Escherichia coli (GC 4560),Escherichia coli,1 µg/mL
same,MIC Streptococcus agalactiae (GC 4564),Streptococcus sp.,0.25 µg/mL
same,MIC Streptococcus pneumoniae (GC 1894),Streptococcus sp.,<0.06 µg/mL
same,MIC Streptococcus pneumoniae (GC 4565),Streptococcus sp.,<0.06 µg/mL
same,MIC Streptococcus pneumonine (ATCC 6301),Streptococcus sp.,<0.06 µg/mL
same,MIC Streptococcus pyogenes (GC 4563),Streptococcus sp.,0.25 µg/mL
same,"median effective dose (ED50), Enterococcus faecalis (GC 6189)",[1],0.46 mg/kg
